The subject of series [1] is Mycobacterium tuberculosis. Description: Antimycobacterial activity against Mycobacterium tuberculosis H37Rv infected in Balb/c mouse assessed as bacterial burden in lungs at 300 mg/kg, po administered daily through gavage for 2 weeks starting on day 2 post infection as 5% soluplus/acetate buffer formulation measured on day 12 post infection (reference value: 6.4 log10CFU). Type of series: functional, Lung.

A short description of series [2]: AUC in Balb/c mouse lungs infected with Mycobacterium tuberculosis H37Rv at 300 mg/kg, po administered through gavage as 5% soluplus/acetate buffer formulation. Type of series: ADME, organism-based. The following applies: lung.
Series [3] relates to Mycobacterium tuberculosis. Description: Antimycobacterial activity against Mycobacterium tuberculosis H37Rv infected in Balb/c mouse assessed as bacterial burden in lungs at 10 mg/kg, po administered daily through gavage for 2 weeks starting on day 2 post infection as 5% soluplus/acetate buffer formulation measured on day 12 post infection (reference value: 6.4 log10CFU). Type of series: functional, Lung.

Series [4] in a line: Time at which plasma concentration stays above invitro MIC80 in presence of mouse serum Balb/c mouse infected with Mycobacterium tuberculosis H37Rv at 300 mg/kg, po administered through gavage as 5% soluplus/acetate buffer formulation. The series is classed as ADME, organism-based. The following applies: in vivo.
Series [5] in a line: AUC in Balb/c mouse plasma infected with Mycobacterium tuberculosis H37Rv at 300 mg/kg, po administered through gavage as 5% soluplus/acetate buffer formulation. The series is classed as ADME, organism-based.
The test system of series [6] is Mycobacterium tuberculosis. The series can be described thus: Antimycobacterial activity against Mycobacterium tuberculosis H37Rv infected in Balb/c mouse assessed as bacterial burden in lungs at 100 mg/kg, po administered daily through gavage for 2 weeks starting on day 2 post infection as 5% soluplus/acetate buffer formulation measured on day 12 post infection (reference value: 6.4 log10CFU). Type of series: functional, Lung.

For series [7], the system named is Mycobacterium tuberculosis. Description: Antimycobacterial activity against Mycobacterium tuberculosis H37Rv infected in Balb/c mouse assessed as bacterial burden in lungs at 30 mg/kg, po administered daily through gavage for 2 weeks starting on day 2 post infection as 5% soluplus/acetate buffer formulation measured on day 12 post infection (reference value: 6.4 log10CFU). Type of series: functional, Lung.

Series [8] has as its system Mycobacterium tuberculosis. Description: Antimycobacterial activity against Mycobacterium tuberculosis H37Rv infected in po dosed Balb/c mouse assessed as bacterial burden in lungs administered daily through gavage starting on day 2 post infection for 4 days per week for 2 weeks each 4 days dosing followed by 2 days compound washout measured on day 12 post infection (reference value: 8 log10CFU). The series is classed as functional, Lung.

A short description of series [9]: Lipophilicity, log P of compound. The conditions noted are these: octanol/water.
Series [10] concerns Mycobacterium tuberculosis. The series can be described thus: Antimycobacterial activity against Mycobacterium tuberculosis H37Rv infected in Balb/c mouse assessed as bacterial burden in lungs at 12.5 mg/kg, po administered daily through gavage starting on day 2 post infection for 4 days per week for 2 weeks as Vitamin-E/PEG200 formulation each 4 days dosing followed by 2 days compound washout measured on day 12 post infection (reference value: 8 log10CFU). Type of series: functional, Lung.

Series [11] deals with Mycobacterium tuberculosis. The series can be described thus: Antimycobacterial activity against Mycobacterium tuberculosis H37Rv infected in Balb/c mouse assessed as bacterial burden in lungs at 25 mg/kg, po administered daily through gavage starting on day 2 post infection for 4 days per week for 2 weeks as Vitamin-E/PEG200 formulation each 4 days dosing followed by 2 days compound washout measured on day 12 post infection (reference value: 8 log10CFU). Type of series: functional, Lung.

Series [12] concerns Mycobacterium tuberculosis. Description: Antimycobacterial activity against Mycobacterium tuberculosis H37Rv infected in Balb/c mouse assessed as bacterial burden in lungs at 50 mg/kg, po administered daily through gavage starting on day 2 post infection for 4 days per week for 2 weeks as Vitamin-E/PEG200 formulation each 4 days dosing followed by 2 days compound washout measured on day 12 post infection (reference value: 8 log10CFU). Type of series: functional, Lung.

Series [13] is described as follows: Protein binding in human plasma at 1 to 10 uM after 4 hrs by LC-MS/MS analysis. The series is classed as ADME, cell-free. The conditions noted are these: read-out: PPB (converted).
Series [14] can be described thus: Half life in Balb/c mouse infected with Mycobacterium tuberculosis H37Rv at 100 mg/kg, po administered through gavage as 90%/10% PEG200/vitamin -E TPGS formulation. The series is classed as ADME, organism-based. The conditions noted are these: in vivo.
Series [15] can be described thus: Protein binding in Swiss mouse plasma at 1 to 10 uM after 4 hrs by LC-MS/MS analysis. Type of series: ADME, cell-free. The following applies: read-out: PPB (converted).
Series [16] in a line: Aqueous equilibrium solubility of compound in pH 7.4 solution at 20 degC. The conditions noted are these: aqueous pH 7.4 solution.
The nature of series [17]: Time at which plasma concentration stays above invitro MIC80 in presence of mouse serum in Balb/c mouse infected with Mycobacterium tuberculosis H37Rv at 100 mg/kg, po administered through gavage as 90%/10% PEG200/vitamin -E TPGS formulation. Type of series: ADME, organism-based. The following applies: in vivo.
Series [18] has as its system Mycobacterium tuberculosis. The series can be described thus: Antimycobacterial activity against Mycobacterium tuberculosis H37Rv incubated for 5 days in presence of 25% human serum by Bactiter-Glo assay. The series is classed as functional. The conditions noted are these: 120 h.
In series [19] the test system is Mycobacterium tuberculosis. The series can be described thus: Ratio of MIC80 for Mycobacterium tuberculosis H37Rv in presence of 25% human serum to MIC80 for Mycobacterium tuberculosis H37Rv. Type of series: functional.
Series [20] in a line: Oral bioavailability in Swiss mouse at 100 mg/kg administered as single dose through gavage as 90%/10% PEG200/vitamin -E TPGS formulation after 24 hrs. Type of series: ADME, organism-based. The conditions noted are these: in vivo.
Series [21] in a line: Ratio of drug level in Mycobacterium tuberculosis H37Rv infected Balb/c mouse lung to plasma at 100 mg/kg, po administered through gavage as 90%/10% PEG200/vitamin -E TPGS formulation. The following applies: lung and plasma. Type of series: ADME, organism-based.
Series [22] can be described thus: Time at which lung concentration stays above invitro MIC80 in presence of mouse serum in Balb/c mouse infected with Mycobacterium tuberculosis H37Rv at 100 mg/kg, po administered through gavage as 90%/10% PEG200/vitamin -E TPGS formulation. The following applies: in vivo. Type of series: ADME, organism-based.
Series [23] relates to Mycobacterium tuberculosis. Description: Antimycobacterial activity against Mycobacterium tuberculosis H37Rv incubated for 5 days in presence of 25% mouse serum by Bactiter-Glo assay. Type of series: functional. The following applies: 120 h.
Series [24] can be described thus: Aqueous equilibrium solubility of compound in pH 1 solution at 20 degC. The following applies: aqueous pH 1 solution.
Series [25] is described as follows: Permeability in human Caco2 cells. The following applies: caco-2.
For series [26], the system named is Mycobacterium tuberculosis. The series can be described thus: Antimycobacterial activity against Mycobacterium tuberculosis H37Rv infected in Balb/c mouse assessed as bacterial burden in lungs at 100 mg/kg, po administered daily through gavage starting on day 2 post infection for 4 days per week for 2 weeks as Vitamin-E/PEG200 formulation each 4 days dosing followed by 2 days compound washout measured on day 12 post infection (reference value: 8 log10CFU). Type of series: functional, Lung.

The test system of series [27] is Mycobacterium tuberculosis. Description: Antimycobacterial activity against Mycobacterium tuberculosis H37Rv incubated for 5 days by Bactiter-Glo assay. Type of series: functional. The following applies: 120 h.
The subject of series [28] is Mycobacterium tuberculosis. The series can be described thus: Antimycobacterial activity against Mycobacterium tuberculosis H37Rv infected in Balb/c mouse assessed as bacterial burden in lungs at 10 to 300 mg/kg administered daily through gavage for 4 days separated by 2 days drug wash out followed by second 4 days drug treatment. The series is classed as functional, Lung.

The subject of series [29] is Mycobacterium tuberculosis. Description: Antimycobacterial activity against Mycobacterium tuberculosis H37Rv in 1000 bacteria inoculated agar plate. The series is classed as functional.
Series [30] in a line: AUC in Balb/c mouse plasma infected with Mycobacterium tuberculosis H37Rv at 100 mg/kg, po administered through gavage as 90%/10% PEG200/vitamin -E TPGS formulation. Type of series: ADME, organism-based.
A short description of series [31]: Cytotoxicity against human HepG2 cells assessed as reduction in cell viability after 40 hrs by Celltiter-Glo assay. The following applies: HepG2 cells.
The nature of series [32]: Solubility in 90%/10% PEG200/vitamin -E TPGS solution. The series is classed as physicochemical.
The target of series [33] is T1, Cytochrome P450 3A4 (Homo sapiens, UniProt P08684). Description: Inhibition of CYP3A4 in human liver microsomes assessed as 6-beta-hydroxytestosterone metabolite formation using testosterone as substrate incubated for 30 mins by HPLC-MS method.
For series [34], the system named is Mycobacterium tuberculosis. Description: Antimycobacterial activity against Mycobacterium tuberculosis H37Rv in 100000 bacteria inoculated agar plate. Type of series: functional.
In series [35] the test system is Mycobacterium tuberculosis. Description: Antimycobacterial activity against Mycobacterium tuberculosis H37Rv infected in po dosed Balb/c mouse assessed as reduction in bacterial burden in lungs administered daily through gavage starting on day 2 post infection for 8 consecutive days. The series is classed as functional. The following applies: Lung, 48 h, read-out: MED.

Series [36] concerns Mycobacterium tuberculosis. Description: Antimycobacterial activity against Mycobacterium tuberculosis H37Rv infected in Balb/c mouse assessed as bacterial burden in lungs at 10 to 300 mg/kg administered daily through gavage starting on day 2 post infection for 8 consecutive days. Type of series: functional, Lung.
Series [37] concerns the target T1, Cytochrome P450 3A4. Description: Inhibition of CYP3A4 in human liver microsomes assessed as 1'-hydroxymidazolam metabolite formation using midazolam as substrate incubated for 10 mins by HPLC-MS method.
Series [38] relates to Mycobacterium tuberculosis. The series can be described thus: Antimycobacterial activity against GFP-tagged Mycobacterium tuberculosis H37Rv infected in mouse RAW264.7 cells incubated for 4 days by Mask blue/Hoechst/FITC staining based fluorescence microscopic analysis. The series is classed as functional. The following applies: 96 h.
For series [39], the system named is Mycobacterium tuberculosis. The series can be described thus: Antimycobacterial activity against Mycobacterium tuberculosis H37Rv infected in Balb/c mouse assessed as bacterial burden in lungs at 200 mg/kg, po administered daily through gavage starting on day 2 post infection for 4 days per week for 2 weeks as Vitamin-E/PEG200 formulation each 4 days dosing followed by 2 days compound washout measured on day 12 post infection (reference value: 8 log10CFU). The series is classed as functional, Lung.

pIC50: −log10 of the molar value. In brackets after ≈: the same amount, converted by molar mass. Where only a bound is given, the exact number is not on record here.

T1 sequence (P08684 whole entry): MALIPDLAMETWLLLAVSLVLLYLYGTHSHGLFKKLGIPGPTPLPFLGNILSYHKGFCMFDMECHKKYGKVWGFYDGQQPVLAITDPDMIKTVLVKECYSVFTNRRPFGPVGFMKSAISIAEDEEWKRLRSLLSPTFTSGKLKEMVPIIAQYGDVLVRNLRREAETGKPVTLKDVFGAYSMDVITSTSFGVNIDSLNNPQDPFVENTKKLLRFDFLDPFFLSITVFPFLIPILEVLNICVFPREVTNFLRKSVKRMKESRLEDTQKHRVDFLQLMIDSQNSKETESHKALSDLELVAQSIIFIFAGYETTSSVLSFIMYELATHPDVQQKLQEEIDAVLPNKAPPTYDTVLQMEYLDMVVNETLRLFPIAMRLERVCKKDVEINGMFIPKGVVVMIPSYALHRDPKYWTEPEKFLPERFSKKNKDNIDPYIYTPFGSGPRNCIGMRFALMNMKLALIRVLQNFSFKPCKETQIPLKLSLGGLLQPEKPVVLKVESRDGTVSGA

Turning to `Cn1c(NCCc2ccc(-c3ccc(F)cc3)cc2)nc2cc(Cl)ccc2c1=O.O=S(=O)(O)O`, the Activity in series [1] worked out at 4.9 log10CFU; in series [3], 6.6 log10CFU; in series [6], 5.5 log10CFU; in series [7] it was 5.8 log10CFU. Also, the AUC in series [2] is 980 µg·h/mL; in [5], 140 µg·h/mL. Also, the Time in series [4] was more than 24 h.
Regarding `CC[C@@H](CO)NCCN[C@@H](CC)CO` [ETHAMBUTOL], in [8], the Activity came out at 7 log10CFU.
As to `Cn1c(NCCc2ccc(-c3ccc(F)cc3)cc2)nc2cc(Cl)ccc2c1=O`, in series [9], the logP is 5.28. For the same molecule, the Activity in series [10] is on record as 7.7 log10CFU; in series [11] it was 7.6 log10CFU; in series [12] it was 7.4 log10CFU; in series [26] it was 7.6 log10CFU; in series [28], 1.5 log10CFU; in [36], 0.78 log10CFU. In series [39], the Activity is given as 7.6 log10CFU. The fraction unbound at 4 h in series [13] and in series [15] was 0.001 each time. Besides, the half-life in series [14] was 8 h. For the same molecule, the thermodynamic solubility in series [16] and in series [24] was less than 0.001 mg/mL throughout. In addition, the Time in series [17] and in series [22] was more than 24 h each time. Besides, the MIC80 came out at 0.025 µM in [18], 0.034 µM in [23], 0.003 µM (≈ 0.00122 µg/mL) in [27] and 0.06 µM (≈ 0.0245 µg/mL) in series [38]. The Ratio in [19] is 8. This molecule came in with a bioavailability in [20] of 73%. Further, in [21], the Kp was 14. Also, the permeability result in series [25] is “Permeable”. Moreover, the MIC in series [29] was 0.016 mg/L (≈ 0.0392 µM); in [34], 2 mg/L (≈ 4.9 µM). In series [30], this molecule gave an AUC of 76 µg·h/mL. Further, the IC50 at 40 h in series [31] was 22 µM. The concentration in solution in series [32] (solubility) was 20 mg/mL (≈ 49000 µM). Further, the pIC50 on Cytochrome P450 3A4 [33] was 4.74; at Cytochrome P450 3A4 [37], less than 4.52. Besides, in series [35], the minimal effective dose stood at 300 mg/kg.

(Values after ChEMBL document CHEMBL3853353, “Identification and optimization of a new series of anti-tubercular quinazolinones” (Bioorg Med Chem Lett, 2016).)
